Test results published in patent publication US20210290680A1, “METHODS AND COMPOSITIONS FOR MODULATING CELLULAR AGING” (Dorian Therapeutics, Inc., priority 2019, published 2021).

Columns and labels:
Format in all cases: cell-based, human
LEF1 = experiment: qPCR of WNT pathway regulator LEF1; conditions: for LEF1 expression, fold change vs Control: CD19.CAR; for LEF1 expression, fold change vs Control / LEF1 expression vs Control: day 15, n=4; for LEF1 expression vs Control: GD2.CAR
From the text: (§1) Primary T cells were activated as described (Example 3), transduced with a lentivirus encoding either a shUSP16 #1, shUSP16 #2 or a non-targeting shRNA (shCtrl) and cells were selected with puromycin at day 6. At day 15 cell were collected and analyzed by qPCR for the expression of LEF1 (FIG. 16A) and TCF7 (FIG. 16B), downstream regulators of the WNT pathway. At day 20, cells were stained for CD4-PE, CD8-BV510, CD62L-Allophycocyanin and CD45RA-APC-Cy7 (Biolegend). Stem cell memory T cells (Tscm) were identified as Sytox^− GFP^+CD45RA^+CD62L^+, central memory T cells (Tcm) as Sytox^−GFP^+CD45RA^−CD62L^+, effector memory T cells (Tem) as Sytox^−GFP^+CD45RA^−CD62L^−, and terminal effector T cell (Teff) as Sytox^−GFP^+CD45RA^+CD62L^− (FIG. 17A). Cells were gated on the CD8 population. The specific increase of Tscm was shown as phenotype ratio (FIG. 17B).
(§2) Primary T cells were activated as described (Example 3), transduced with a lentivirus encoding for either a CD19.CAR or a GD2.CAR co-expressing shUSP16 #1, shUSP16 #2 or a scrambled shRNA (Control). Fifteen days post-activation, T cells were collected and qPCR performed. TaqMan probes detecting CDKN1A, CDKN2A (FIGS. 26A and 26B) (fold change GD2.CAR (n=4): CDKN1A Control vs shUSP #1: 0.4360, p<0.0001, and Control vs shUSP16 #2: 3.036, p=0.004 respectively. Fold change CD19.CAR (n=4): CDKN2a, CDKN1A Control vs shUSP #1: 0.6906, p=0.0026; 0.7228, p=0.0297 and Control vs shUSP16 #2: 0.8385, p=0.2325; 0.7017, p=0.0021), TCF7, LEF1, and Axin-2 (FIGS. 27A and B) were analyzed in GD2.CAR and CD19.CAR-expressing cells, respectively. ACTB was used as internal control. (GD2.CAR (n=4) TCF7, LEF1 and Axin-2: Control vs shUSP #1: 1.914 p=0.0512; 1.795 p=0.0323; 3.269 p=0.15 and Control vs shUSP16 #2: 1.284 p=0.0494; 1.718 p=0.0586; 2.035p=0.235, respectively. Fold change CD19.CAR (n=4): TCF7, LEF1 and Axin-2: Control vs shUSP #1: 1.528, p=0.0277; 1.82, p=0.0449; 1.998, p=0.031 and Control vs shUSP16 #2: 1.18, p=0.2002; 1.579, p=0.0632; 1.261, p=0.2382). USP16 downregulation in CAR-T cells results in a decreased expression of senescence markers and an increase in the expression of genes associated with the activation/increased signaling of the WNT pathway, indicating its importance in delaying cellular senescence and increasing self-renewal.

NALM cells = experiment: CAR-T in vitro cytotoxicity assay, CD19.CAR T cells; conditions: 1:5 E:T, 72 hours, n=3
Experimental: Primary T cells were activated as described (Example 3), transduced with a lentivirus encoding for either a CD19.CAR or a GD2.CAR co-expressing shUSP16 #1, shUSP16 #2 or a scrambled shRNA (Control). Cells were cultured in IL-2 and sorted between days 6-13 for EGFRt. At day 16 cytotoxicity assays were performed. Briefly, cells were counted and 100,000 T cells (adjusted for EGFR expression) were plated at 1:5 Effector:Target (E:T) ratio. At 72 hours, the mixture of tumor cells and T cells were collected, stained for CD3-PE, CD8-BV510, CD19- or GD2-APC, EGFR-AF488 and Sytox and counted by flow cytometry (MACSQuant, Miltenyi Biotec) (FIGS. 30A and 30B). Counting beads (CountBright Absolute Counting beads, Invitrogen) were added before acquisition and absolute number was calculated as following (number of cell events/number of bead events)×(assigned bead count of the lot (beads/50 ul)/volume of sample (ul))=concentration of sample as cells/ul). NALM cells were used as target cells for CD19.CAR T cells and CHLA-55 cells were used as target for GD2.CAR T cells. Three different primary T cell cultures were tested for CD19 and GD2 CAR.

TCF7 = experiment: qPCR of WNT pathway regulator TCF7; conditions: for TCF7 expression, fold change vs Control: CD19.CAR; for TCF7 expression, fold change vs Control / TCF7 expression vs Control: day 15, n=4; for TCF7 expression vs Control: GD2.CAR; for TCF7 expression, fold increase over Control: primary T cells, day 15
From the text: as §1, §2

Substance	LEF1 expression, fold change vs Control (LEF1)	LEF1 expression vs Control (LEF1)	LEF1 expression, fold increase over Control (LEF1; primary T cells, day 15)	T cell number (NALM cells)	residual tumor cells (NALM) (NALM cells)	TCF7 expression, fold change vs Control (TCF7)	TCF7 expression vs Control (TCF7)	TCF7 expression, fold increase over Control (TCF7)
shUSP16 #1: shRNA targeting USP16, 5′-GACTGTAAGACTGACAATAAA-3′ (SEQ ID NO: 8), pSIH backbone or co-expressed in CAR plasmid	1.82	1.795	1.650	46674	29688	1.528	1.914	2.804
shUSP16 #2: shRNA targeting USP16, 5′-TATATCAGTTCACCCGTAAT-3′ (SEQ ID NO: 9), pSIH backbone or co-expressed in CAR plasmid	1.579	1.718	–	58732	28462	1.18	1.284	1.428
